Measurements reported in patent publication US11312712B2, “Azabenzimidazoles and their use as AMPA receptor modulators” (Janssen Pharmaceutica NV, priority 2015, dated 2022).

target: GluA1o-γ8 (GRIA1o-CACNG8 fusion construct) (Homo sapiens (Human), UniProt P42261+Q8WXS5); test: Calcium flux assay (FLIPR), inhibition of TARP γ8 dependent AMPA receptor activity; type: cell-based; details: GluA1o-γ8 (GRIA1o-CACNG8 fusion) in HEK293 cells, calcium flux after 15 μM glutamate
How it was run: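 HEK293 cells stably expressing a 1:1 GRIA1o–CACNG8 fusion were loaded with Calcium-5/6 dye plus compound in pH 7.4 HEPES-buffered saline. FLIPR calcium flux after 15 μM glutamate was normalized to untreated and 10 μM CP465022 controls, and a four-parameter logistic fit gave pIC50.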

GluA1o-γ8 (GRIA1o-CACNG8 fusion construct), sequence (P42261 other isoform, or with tags, fused parts or gaps): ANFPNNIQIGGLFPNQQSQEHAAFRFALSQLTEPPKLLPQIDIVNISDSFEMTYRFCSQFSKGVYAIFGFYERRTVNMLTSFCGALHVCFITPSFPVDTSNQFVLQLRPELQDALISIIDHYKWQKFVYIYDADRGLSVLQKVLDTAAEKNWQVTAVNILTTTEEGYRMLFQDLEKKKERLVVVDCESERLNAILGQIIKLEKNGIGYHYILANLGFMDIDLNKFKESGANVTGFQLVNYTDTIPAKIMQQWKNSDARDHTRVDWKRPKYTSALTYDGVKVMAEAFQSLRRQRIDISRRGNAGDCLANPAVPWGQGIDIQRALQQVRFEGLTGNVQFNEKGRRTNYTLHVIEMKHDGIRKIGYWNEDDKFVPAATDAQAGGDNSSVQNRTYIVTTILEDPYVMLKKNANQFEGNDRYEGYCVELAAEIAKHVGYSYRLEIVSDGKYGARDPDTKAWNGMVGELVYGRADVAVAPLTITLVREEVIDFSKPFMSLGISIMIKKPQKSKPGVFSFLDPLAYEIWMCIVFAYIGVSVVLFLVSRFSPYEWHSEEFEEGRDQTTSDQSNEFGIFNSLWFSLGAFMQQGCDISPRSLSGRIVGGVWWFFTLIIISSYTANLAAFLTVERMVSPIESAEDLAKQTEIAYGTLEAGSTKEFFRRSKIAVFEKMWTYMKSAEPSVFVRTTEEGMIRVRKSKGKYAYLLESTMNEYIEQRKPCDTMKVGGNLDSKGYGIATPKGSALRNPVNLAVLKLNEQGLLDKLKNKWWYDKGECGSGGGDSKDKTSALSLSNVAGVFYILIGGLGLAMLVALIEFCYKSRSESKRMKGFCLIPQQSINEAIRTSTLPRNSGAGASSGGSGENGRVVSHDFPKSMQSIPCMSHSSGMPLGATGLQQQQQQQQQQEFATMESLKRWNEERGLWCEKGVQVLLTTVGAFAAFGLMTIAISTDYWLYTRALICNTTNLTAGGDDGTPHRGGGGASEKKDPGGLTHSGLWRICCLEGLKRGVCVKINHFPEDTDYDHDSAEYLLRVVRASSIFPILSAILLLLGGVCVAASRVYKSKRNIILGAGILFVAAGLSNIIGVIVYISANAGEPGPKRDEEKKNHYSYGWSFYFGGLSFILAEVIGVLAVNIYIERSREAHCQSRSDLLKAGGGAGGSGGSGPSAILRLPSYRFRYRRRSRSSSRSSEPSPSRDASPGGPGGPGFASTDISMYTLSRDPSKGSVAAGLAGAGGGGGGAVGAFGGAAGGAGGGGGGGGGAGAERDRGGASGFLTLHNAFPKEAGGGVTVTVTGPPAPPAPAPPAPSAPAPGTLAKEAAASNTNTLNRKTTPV

SMILES	IC50 [nM]
O=C(c1nc2ccc(C(F)(F)F)nc2n1-c1ccc2[nH]ncc2c1)N1CCCC1 [Example 173, [3-(1H-Indazol-5-yl)-5-(trifluoromethyl)imidazo[4,5-b]pyridin-2-yl]-pyrrolidin-1-yl-methanone]	10000
FC(F)(F)c1ccc(-c2nc3cccnc3n2-c2ccc3[nH]ncc3c2)cc1 [Example 176, 3-(1H-Indazol-5-yl)-2-[4-(trifluoromethyl)phenyl]imidazo[4,5-b]pyridine]	10000
FC(F)(F)Oc1ccc(-c2nc3cccnc3n2-c2ccc3[nH]ncc3c2)cc1 [Example 177, 3-(1H-Indazol-5-yl)-2-[4-(trifluoromethoxy)phenyl]imidazo[4,5-b]pyridine]	12600
CC(C)(C)OC(=O)N1CC(c2nc3ccc(C(F)(F)F)nc3n2-c2ccc3c(c2)CC(=O)N3)C1 [Example 179, tert-Butyl 3-[3-(2-oxoindolin-5-yl)-5-(trifluoromethyl)imidazo[4,5-b]pyridin-2-yl]azetidine-1-carboxylate]	3160
O=C1Cc2cc(-n3c(C4CNC4)nc4ccc(C(F)(F)F)nc43)ccc2N1 [Example 180, 5-[2-(Azetidin-3-yl)-5-(trifluoromethyl)imidazo[4,5-b]pyridin-3-yl]indolin-2-one]	2000
Cn1c(=O)sc2cc(-n3c(C4CCC4)nc4ccc(C(F)(F)F)nc43)ccc21 [Example 185, 6-(2-Cyclobutyl-5-(trifluoromethyl)-3H-imidazo[4,5-b]pyridin-3-yl)-3-methylbenzo[d]thiazol-2(3H)-one]	100
FC(F)(F)c1ccc2nc(C(F)(F)F)n(-c3cc(Br)c4[nH]ncc4c3)c2n1 [Example 187, 3-(7-Bromo-1H-indazol-5-yl)-2,5-bis(trifluoromethyl)imidazo[4,5-b]pyridine]	0.01
FC(F)(F)c1ccc2nc(C(F)(F)F)n(-c3cc(-c4ccccc4)c4[nH]ncc4c3)c2n1 [Example 188, 3-(7-Phenyl-1H-indazol-5-yl)-2,5-bis(trifluoromethyl)-3H-imidazo[4,5-b]pyridine]	316
CC(C)c1nc2ccc(C(F)(F)F)nc2n1-c1ccc2[nH]nc(F)c2c1 [Example 191, 3-(3-Fluoro-1H-indazol-5-yl)-2-isopropyl-5-(trifluoromethyl)imidazo[4,5-b]pyridine]	3.98

Further lines, results first:

IC50 [nM]	SMILES
3160	O=C1Cc2cc(-n3c(-c4ccc(C(F)(F)F)cc4)nc4cccnc43)ccc2N1 [Example 178, 5-[2-[4-(Trifluoromethyl)phenyl]imidazo[4,5-b]pyridin-3-yl]indolin-2-one]
2510	Cc1ccc2nc(C)n(-c3ccc4c(c3)CC(=O)N4)c2n1 [Example 181, 5-(2,5-Dimethylimidazo[4,5-b]pyridin-3-yl)indolin-2-one]
2000	COC(=O)CCc1nc2ccc(C(F)(F)F)nc2n1-c1ccc2c(c1)CC(=O)N2 [Example 183, Methyl 3-[3-(2-oxoindolin-5-yl)-5-(trifluoromethyl)imidazo[4,5-b]pyridin-2-yl]propanoate]
0.01	CC(C)c1nc2ccc(C(F)(F)F)nc2n1-c1cc(Br)c2[nH]ncc2c1 [Example 184, 3-(7-Bromo-1H-indazol-5-yl)-2-isopropyl-5-(trifluoromethyl)imidazo[4,5-b]pyridine]
0.0398	C=Cc1cc(-n2c(C(F)(F)F)nc3ccc(C(F)(F)F)nc32)cc2cn[nH]c12 [Example 189, 2,5-Bis(trifluoromethyl)-3-(7-vinyl-1H-indazol-5-yl)-3H-imidazo[4,5-b]pyridine]
316	O=c1[nH]c2ccc(-n3cnc4ccc(C(F)(F)F)nc43)cc2s1 [Example 190, 6-(5-(Trifluoromethyl)-3H-imidazo[4,5-b]pyridin-3-yl)benzo[d]thiazol-2(3H)-one]
2.51	FC(F)(F)c1nc2ccc(Cl)nc2n1-c1ccc2[nH]ncc2c1 [Example 192, 5-Chloro-3-(1H-indazol-5-yl)-2-(trifluoromethyl)imidazo[4,5-b]pyridine]
